# The source made the active and inactive calls. The calls are words filed in the database; no cut-off is given here.
# Key:
# [1] = Acute toxicity in male Sprague-Dawley rat assessed as effect on body weight at 500 to 4500 mg/kg, po measured every 3 days for 15 days; assay type: organism-based; details: in vivo, 360 h, dose 500-4500 mg/kg, time 15 day
# [2] = Toxicity in Balb/c mouse assessed as effect on body weight at 100 to 200 mg/kg, po measured upto 40 days; assay type: organism-based; details: in vivo, 960 h, dose 100-200 mg/kg, time < 40 day
# [3] = tested on: NCI-H446; test: Antiproliferative activity against human NCI-H446 cells incubated for 96 hrs by MTT assay; assay type: functional, cell-based; details: NCI-H446, 96 h
# [4] = tested on: PC-3; test: Antiproliferative activity against human PC-3 cells incubated for 96 hrs by MTT assay; assay type: functional, cell-based; details: PC-3, 96 h
# [5] = biological target: Histone deacetylase 11 (Homo sapiens, UniProt Q96DB2); test: Inhibition of human HDAC11 incubated for 10 mins followed by fluorogenic substrate addition by fluorescence based analysis
# [6] = biological target: Histone deacetylase 3 (Homo sapiens, UniProt O15379); test: Inhibition of human HDAC3 incubated for 10 mins followed by fluorogenic substrate addition by fluorescence based analysis
# [7] = tested on: NCI-H1650; test: Antiproliferative activity against human NCI-H1650 cells incubated for 96 hrs by MTT assay; assay type: functional, cell-based; details: NCI-H1650, 96 h
# [8] = Half life in Sprague-Dawley rat at 2 mg/kg, iv measured upto 24 hrs by LC-MS/MS analysis; assay type: ADME, organism-based; details: in vivo
# [9] = biological target: Histone deacetylase 2 (Homo sapiens, UniProt Q92769); test: Inhibition of human HDAC2 incubated for 10 mins followed by fluorogenic substrate addition by fluorescence based analysis
# [10] = biological target: Histone deacetylase 9 (Homo sapiens, UniProt Q9UKV0); test: Inhibition of human HDAC9 incubated for 10 mins followed by fluorogenic substrate addition by fluorescence based analysis
# [11] = Acute toxicity in Sprague-Dawley rat assessed as effect on lung at 500 to 4500 mg/kg, po measured after 15 days; assay type: organism-based; details: in vivo, 360 h, dose 500-4500 mg/kg, time 15 day
# [12] = Volume of distribution in Sprague-Dawley rat at 2 mg/kg, iv measured upto 24 hrs by LC-MS/MS analysis; assay type: ADME, organism-based; details: in vivo
# [13] = Acute toxicity in Sprague-Dawley rat assessed as effect on kidney at 500 to 4500 mg/kg, po measured after 15 days; assay type: organism-based; details: in vivo, 360 h, dose 500-4500 mg/kg, time 15 day
# [14] = Cmax in Sprague-Dawley rat at 2 mg/kg, iv measured upto 24 hrs by LC-MS/MS analysis; assay type: ADME, organism-based; details: in vivo
# [15] = tested on: DU-145; test: Induction of apoptosis in human DU-145 cells measured after 72 hrs by annexin V-FITC and PI staining based flow cytometry analysis; assay type: functional, cell-based; details: dose 0.4-1.6 µM
# [16] = tested on: DU-145; test: Antitumor activity against human DU-145 cells xenografted in Balb/c nude mouse model assessed as tumor growth inhibition at 100 mg/kg, po administered once daily for 40 days in presence of docetaxel relative to control; assay type: functional; details: DU-145, 960 h, time 40 day, read-out: TGI
# [17] = tested on: HT-29; test: Antiproliferative activity against human HT-29 cells incubated for 96 hrs by MTT assay; assay type: functional, cell-based; details: HT-29, 96 h
# [18] = tested on: DU-145; test: Induction of apoptosis in human DU-145 cells assessed as apoptotic rate at 0.8 uM measured after 72 hrs by annexin V-FITC and PI staining based flow cytometry analysis (reference value: 3.41%); assay type: functional
# [19] = Oral bioavailability in Sprague-Dawley rat at 10 mg/kg measured upto 24 hrs by LC-MS/MS analysis; assay type: ADME, organism-based; details: in vivo
# [20] = biological target: Protein deacetylase HDAC6 (Homo sapiens, UniProt Q9UBN7); test: Inhibition of human HDAC6 incubated for 10 mins followed by fluorogenic substrate addition by fluorescence based analysis
# [21] = tested on: MDA-MB-231; test: Antiproliferative activity against human MDA-MB-231 cells incubated for 96 hrs by MTT assay; assay type: functional, cell-based; details: MDA-MB-231, 96 h
# [22] = Acute toxicity in Sprague-Dawley rat assessed as effect on spleen at 500 to 4500 mg/kg, po measured after 15 days; assay type: organism-based; details: in vivo, 360 h, dose 500-4500 mg/kg, time 15 day
# [23] = Acute toxicity in female Sprague-Dawley rat assessed as effect on body weight at 500 to 4500 mg/kg, po measured every 3 days for 15 days; assay type: organism-based; details: in vivo, 360 h, dose 500-4500 mg/kg, time 15 day
# [24] = Acute toxicity in Sprague-Dawley rat assessed as effect on heart at 500 to 4500 mg/kg, po measured after 15 days; assay type: organism-based; details: in vivo, 360 h, dose 500-4500 mg/kg, time 15 day
# [25] = tested on: MCF7; test: Antiproliferative activity against human MCF7 cells incubated for 96 hrs by MTT assay; assay type: functional, cell-based; details: MCF7, 96 h
# [26] = Cmax in Sprague-Dawley rat at 10 mg/kg, po measured upto 24 hrs by LC-MS/MS analysis; assay type: ADME, organism-based; details: in vivo
# [27] = biological target: Histone deacetylase 8 (Homo sapiens, UniProt Q9BY41); test: Inhibition of human HDAC8 incubated for 10 mins followed by fluorogenic substrate addition by fluorescence based analysis
# [28] = Clearance in Sprague-Dawley rat at 2 mg/kg, iv measured upto 24 hrs by LC-MS/MS analysis; assay type: ADME, organism-based; details: in vivo
# [29] = tested on: DU-145; test: Downregulation of HDAC6 expression in human DU-145 cells at 0.8 uM incubated for 24 hrs by Western blot analysis; assay type: functional, cell-based
# [30] = Half life in Sprague-Dawley rat at 10 mg/kg, po measured upto 24 hrs by LC-MS/MS analysis; assay type: ADME, organism-based; details: in vivo
# [31] = biological target: Histone deacetylase 4 (Homo sapiens, UniProt P56524); test: Inhibition of human HDAC4 incubated for 10 mins followed by fluorogenic substrate addition by fluorescence based analysis
# [32] = tested on: DU-145; test: Antitumor activity against human DU-145 cells xenografted in Balb/c nude mouse model assessed as tumor growth inhibition at high dose administered as po once daily for 40 days relative to control; assay type: functional; details: time 40 day
# [33] = tested on: DU-145; test: Antitumor activity against human DU-145 cells xenografted in Balb/c nude mouse model assessed as tumor growth inhibition at 200 mg/kg, po administered once daily for 40 days in presence of docetaxel relative to control; assay type: functional; details: DU-145, 960 h, time 40 day, read-out: TGI
# [34] = tested on: DU-145; test: Inhibition of colony formation in human DU-145 cells assessed as suppression of colony formation at 3.2 uM measured after […] by crystal violet staining based analysis relative to control; assay type: functional
# [35] = tested on: DU-145; test: Induction of cell cycle arrest in human DU-145 cells assessed as increase in accumulation of cells at G2/M phase incubated for 24 hrs by PI staining based flow cytometry analysis; assay type: functional; details: dose 0.4-3.2 µM
# [36] = Acute toxicity in Sprague-Dawley rat assessed as pathological lesions at 500 to 4500 mg/kg, po measured after 15 days by H and E staining based analysis; assay type: organism-based; details: in vivo, 360 h, dose 500-4500 mg/kg, time 15 day
# [37] = tested on: DU-145; test: Inhibition of colony formation in human DU-145 cells assessed as suppression of colony formation measured after 2 weeks by crystal violet staining based analysis; assay type: functional, cell-based; details: dose 0.4-3.2 µM
# [38] = tested on: DU-145; test: Upregulation of Ac-H3 level in human DU-145 cells incubated for 24 hrs by Western blot analysis; assay type: functional, cell-based; details: dose 0.8-3.2 µM
# [39] = biological target: Histone deacetylase 5 (Homo sapiens, UniProt Q9UQL6); test: Inhibition of human HDAC5 incubated for 10 mins followed by fluorogenic substrate addition by fluorescence based analysis
# [40] = tested on: DU-145; test: Antiproliferative activity against human DU-145 cells incubated for 96 hrs by MTT assay; assay type: functional, cell-based; details: DU-145, 96 h
# Chain of Histone deacetylase 5 (Q9UQL6 whole entry): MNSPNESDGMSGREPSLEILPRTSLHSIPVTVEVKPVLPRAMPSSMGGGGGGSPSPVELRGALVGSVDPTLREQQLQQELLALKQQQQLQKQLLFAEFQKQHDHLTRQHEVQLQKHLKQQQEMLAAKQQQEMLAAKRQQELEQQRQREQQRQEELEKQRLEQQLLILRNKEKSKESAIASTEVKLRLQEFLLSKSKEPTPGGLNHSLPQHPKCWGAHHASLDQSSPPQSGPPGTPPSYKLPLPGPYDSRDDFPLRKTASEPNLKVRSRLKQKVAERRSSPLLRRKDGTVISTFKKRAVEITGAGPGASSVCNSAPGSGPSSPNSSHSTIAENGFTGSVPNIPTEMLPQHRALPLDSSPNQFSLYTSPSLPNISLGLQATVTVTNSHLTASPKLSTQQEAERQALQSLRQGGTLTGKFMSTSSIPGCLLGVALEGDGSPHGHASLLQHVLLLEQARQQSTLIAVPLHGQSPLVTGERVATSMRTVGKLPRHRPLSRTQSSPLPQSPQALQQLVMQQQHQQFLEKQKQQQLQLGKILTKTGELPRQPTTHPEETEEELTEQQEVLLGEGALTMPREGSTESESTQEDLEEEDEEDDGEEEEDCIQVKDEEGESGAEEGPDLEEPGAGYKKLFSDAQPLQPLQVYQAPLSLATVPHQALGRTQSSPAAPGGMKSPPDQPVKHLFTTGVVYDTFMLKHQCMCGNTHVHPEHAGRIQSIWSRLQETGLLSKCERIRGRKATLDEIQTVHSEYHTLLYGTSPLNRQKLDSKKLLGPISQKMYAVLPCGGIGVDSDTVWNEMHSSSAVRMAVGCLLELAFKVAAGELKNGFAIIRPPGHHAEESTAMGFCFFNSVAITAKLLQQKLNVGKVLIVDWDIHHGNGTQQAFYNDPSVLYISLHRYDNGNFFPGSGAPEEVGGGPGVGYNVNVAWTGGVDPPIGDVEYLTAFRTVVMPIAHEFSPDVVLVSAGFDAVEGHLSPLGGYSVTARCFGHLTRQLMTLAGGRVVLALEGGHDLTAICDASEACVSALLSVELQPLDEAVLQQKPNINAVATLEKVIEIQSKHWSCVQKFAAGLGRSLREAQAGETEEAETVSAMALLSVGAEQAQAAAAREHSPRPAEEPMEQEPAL
# Chain of Protein deacetylase HDAC6 (Q9UBN7 whole entry): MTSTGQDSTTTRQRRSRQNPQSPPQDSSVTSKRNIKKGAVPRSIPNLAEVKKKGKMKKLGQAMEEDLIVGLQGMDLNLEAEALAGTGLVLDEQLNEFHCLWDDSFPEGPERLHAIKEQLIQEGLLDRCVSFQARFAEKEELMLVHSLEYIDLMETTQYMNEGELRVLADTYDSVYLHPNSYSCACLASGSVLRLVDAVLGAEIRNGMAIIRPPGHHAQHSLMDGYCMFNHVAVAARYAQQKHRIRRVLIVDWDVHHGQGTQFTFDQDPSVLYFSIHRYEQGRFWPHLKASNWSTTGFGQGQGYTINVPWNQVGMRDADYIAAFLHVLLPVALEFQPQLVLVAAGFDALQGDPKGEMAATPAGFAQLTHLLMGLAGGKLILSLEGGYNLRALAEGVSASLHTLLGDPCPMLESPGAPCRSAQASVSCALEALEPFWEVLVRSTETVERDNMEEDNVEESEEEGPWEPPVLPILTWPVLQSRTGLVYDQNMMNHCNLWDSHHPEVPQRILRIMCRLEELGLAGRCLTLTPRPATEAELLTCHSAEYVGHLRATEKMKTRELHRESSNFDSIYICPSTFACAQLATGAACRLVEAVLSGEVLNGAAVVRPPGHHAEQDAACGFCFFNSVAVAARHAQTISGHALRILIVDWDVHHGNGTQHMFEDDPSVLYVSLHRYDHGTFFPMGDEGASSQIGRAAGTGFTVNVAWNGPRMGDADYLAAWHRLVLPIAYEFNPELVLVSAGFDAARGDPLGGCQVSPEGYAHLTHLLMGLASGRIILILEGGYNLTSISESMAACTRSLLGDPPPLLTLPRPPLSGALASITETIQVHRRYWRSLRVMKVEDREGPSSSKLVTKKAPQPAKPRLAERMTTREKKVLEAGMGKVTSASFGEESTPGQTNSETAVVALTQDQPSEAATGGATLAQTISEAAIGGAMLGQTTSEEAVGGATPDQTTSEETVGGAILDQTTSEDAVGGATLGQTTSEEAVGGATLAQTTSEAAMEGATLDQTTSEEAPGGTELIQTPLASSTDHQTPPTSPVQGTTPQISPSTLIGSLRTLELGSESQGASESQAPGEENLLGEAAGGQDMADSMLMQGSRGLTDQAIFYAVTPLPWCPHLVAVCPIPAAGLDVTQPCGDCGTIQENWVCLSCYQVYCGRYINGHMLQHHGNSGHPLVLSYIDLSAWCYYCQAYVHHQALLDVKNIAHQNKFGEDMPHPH
# Chain of Histone deacetylase 11 (Q96DB2 whole entry): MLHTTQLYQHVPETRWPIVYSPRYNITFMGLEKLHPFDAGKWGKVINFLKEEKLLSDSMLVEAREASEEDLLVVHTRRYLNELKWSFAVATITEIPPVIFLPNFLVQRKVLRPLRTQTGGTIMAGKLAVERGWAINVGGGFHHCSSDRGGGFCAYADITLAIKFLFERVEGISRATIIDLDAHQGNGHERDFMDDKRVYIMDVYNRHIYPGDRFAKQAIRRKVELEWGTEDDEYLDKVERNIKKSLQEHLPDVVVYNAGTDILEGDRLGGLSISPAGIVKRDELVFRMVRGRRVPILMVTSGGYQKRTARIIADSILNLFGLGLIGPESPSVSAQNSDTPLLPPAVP
# Chain of Histone deacetylase 8 (Q9BY41 whole entry): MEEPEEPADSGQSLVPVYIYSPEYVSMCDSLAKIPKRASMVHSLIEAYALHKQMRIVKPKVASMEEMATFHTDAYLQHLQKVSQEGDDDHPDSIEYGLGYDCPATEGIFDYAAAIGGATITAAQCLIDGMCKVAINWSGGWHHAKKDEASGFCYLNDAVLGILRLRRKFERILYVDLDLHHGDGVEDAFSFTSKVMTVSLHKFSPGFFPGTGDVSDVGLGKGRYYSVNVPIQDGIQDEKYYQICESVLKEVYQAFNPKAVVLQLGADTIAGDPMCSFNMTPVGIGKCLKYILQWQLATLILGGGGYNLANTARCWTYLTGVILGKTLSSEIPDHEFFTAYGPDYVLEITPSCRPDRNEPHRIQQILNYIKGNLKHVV
# Chain of Histone deacetylase 3 (O15379 whole entry): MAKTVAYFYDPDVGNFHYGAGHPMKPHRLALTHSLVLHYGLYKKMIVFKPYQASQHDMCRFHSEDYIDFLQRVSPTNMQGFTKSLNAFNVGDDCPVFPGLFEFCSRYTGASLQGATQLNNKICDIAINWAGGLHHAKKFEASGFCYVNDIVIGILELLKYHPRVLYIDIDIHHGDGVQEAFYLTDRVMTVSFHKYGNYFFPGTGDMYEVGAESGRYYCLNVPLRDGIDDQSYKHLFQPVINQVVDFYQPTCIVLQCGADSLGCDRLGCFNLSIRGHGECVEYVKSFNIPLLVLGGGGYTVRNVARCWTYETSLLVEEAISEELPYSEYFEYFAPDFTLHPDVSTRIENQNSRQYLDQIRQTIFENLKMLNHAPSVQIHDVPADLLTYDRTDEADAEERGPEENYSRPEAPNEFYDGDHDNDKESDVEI
# Chain of Histone deacetylase 4 (P56524 whole entry): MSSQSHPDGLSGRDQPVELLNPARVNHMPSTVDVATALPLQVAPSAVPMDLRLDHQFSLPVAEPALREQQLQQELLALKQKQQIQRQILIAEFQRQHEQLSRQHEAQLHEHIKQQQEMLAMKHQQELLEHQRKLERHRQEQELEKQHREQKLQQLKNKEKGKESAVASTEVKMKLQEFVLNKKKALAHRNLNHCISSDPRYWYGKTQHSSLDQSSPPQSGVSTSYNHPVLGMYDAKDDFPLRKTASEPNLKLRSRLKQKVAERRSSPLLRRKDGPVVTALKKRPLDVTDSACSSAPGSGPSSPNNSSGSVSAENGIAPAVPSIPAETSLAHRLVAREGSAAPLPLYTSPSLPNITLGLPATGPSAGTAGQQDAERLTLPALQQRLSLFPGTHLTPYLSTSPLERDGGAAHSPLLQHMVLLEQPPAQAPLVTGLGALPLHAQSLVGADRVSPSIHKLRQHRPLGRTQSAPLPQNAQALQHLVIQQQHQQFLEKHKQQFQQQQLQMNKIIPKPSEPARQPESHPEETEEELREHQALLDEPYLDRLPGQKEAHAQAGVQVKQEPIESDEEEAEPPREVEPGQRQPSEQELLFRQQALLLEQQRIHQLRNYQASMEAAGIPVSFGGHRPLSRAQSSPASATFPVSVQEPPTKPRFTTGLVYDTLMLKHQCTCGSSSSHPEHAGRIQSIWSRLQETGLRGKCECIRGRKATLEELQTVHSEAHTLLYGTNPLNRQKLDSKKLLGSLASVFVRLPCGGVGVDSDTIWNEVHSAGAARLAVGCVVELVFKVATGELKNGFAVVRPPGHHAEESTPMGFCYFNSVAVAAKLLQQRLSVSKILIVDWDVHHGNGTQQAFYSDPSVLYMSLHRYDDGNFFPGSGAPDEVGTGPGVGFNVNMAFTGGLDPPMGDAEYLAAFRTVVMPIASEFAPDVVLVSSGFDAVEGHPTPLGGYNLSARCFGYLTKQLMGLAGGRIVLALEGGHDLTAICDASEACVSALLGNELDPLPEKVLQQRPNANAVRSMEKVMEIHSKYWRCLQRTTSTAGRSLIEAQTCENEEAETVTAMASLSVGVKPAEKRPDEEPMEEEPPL
# Chain of Histone deacetylase 2 (Q92769 whole entry): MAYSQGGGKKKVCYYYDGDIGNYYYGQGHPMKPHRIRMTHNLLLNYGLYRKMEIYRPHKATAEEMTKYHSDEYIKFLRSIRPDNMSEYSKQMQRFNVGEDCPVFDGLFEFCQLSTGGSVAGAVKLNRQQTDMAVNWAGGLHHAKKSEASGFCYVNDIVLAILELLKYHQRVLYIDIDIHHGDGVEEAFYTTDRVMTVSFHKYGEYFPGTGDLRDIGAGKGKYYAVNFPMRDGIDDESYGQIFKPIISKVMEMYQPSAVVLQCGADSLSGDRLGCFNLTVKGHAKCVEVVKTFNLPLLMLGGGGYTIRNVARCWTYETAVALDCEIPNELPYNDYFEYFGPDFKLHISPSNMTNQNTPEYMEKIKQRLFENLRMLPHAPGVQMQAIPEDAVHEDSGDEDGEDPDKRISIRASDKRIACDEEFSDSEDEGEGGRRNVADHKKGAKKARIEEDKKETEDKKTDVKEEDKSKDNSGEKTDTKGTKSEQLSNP
compound,measurement,setting,value
COc1ccccc1/C=C1\CC(=O)N(CCCCCCC(=O)NO)C1=O,Activity,[1],Non-Toxic
same,Activity,[2],Non-Toxic
same,IC50,[3],650 nM
same,IC50,[4],720 nM
same,IC50,[5],> 5000 nM
same,IC50,[6],20 nM
same,IC50,[7],3560 nM
same,half-life,[8],3.12 h
same,IC50,[9],14.1 nM
same,IC50,[10],> 5000 nM
same,Activity,[11],Non-Toxic
same,Vd,[12],4.63 L/kg
same,Activity,[13],Non-Toxic
same,Cmax,[14],852 ng/mL
same,Activity,[15],Dose-Dependent Effect
same,inhibition in vivo at 100 mg/kg,[16],71.4%
same,IC50,[17],1050 nM
same,Activity,[18],27.45%
same,bioavailability,[19],46.5%
same,IC50,[20],3 nM
same,IC50,[21],310 nM
same,Activity,[22],Non-Toxic
same,Activity,[23],Non-Toxic
same,Activity,[24],Non-Toxic
same,IC50,[25],350 nM
same,Cmax,[26],774 ng/mL
same,IC50,[27],566 nM
same,clearance,[28],26.2 mL/min/kg
same,Activity,[29],Active
same,half-life,[30],2.87 h
same,IC50,[31],> 5000 nM
same,TGI,[32],68%
same,inhibition in vivo at 200 mg/kg,[33],81.3%
same,inhibition at 3.2 µM,[34],100%
same,Activity,[35],Dose-Dependent Effect
same,Activity,[36],Non-Toxic
same,inhibition,[37],Dose-Dependent Effect
same,Activity,[38],Dose-Dependent Effect
same,IC50,[39],> 5000 nM
same,IC50,[40],160 nM
